The values that follow come from ChEMBL document CHEMBL4229327, “Chemical Approaches to Modulating Complement-Mediated Diseases” (J Med Chem, 2018).

Bridge positions count the residues as written; N and C are the ends. Peptide text beside a SMILES is read from it.

Test [1] in a line: Inhibition of bovine trypsin esterolytic activity using Na-benzoyl-L-Arg-nitroanalide as substrate. Also on record: species or system Bos taurus.
The nature of test [2]: Inhibition of rat serum alternative complement system-mediated lysis of guinea pig erythrocytes.
Test [3] in a line: Selectivity ratio of IC50 for rat serum alternative complement system-mediated lysis of guinea pig erythrocytes to IC50 for human serum C1s-mediated lysis of rabbit Ab-sensitized sheep erythrocytes after 60 mins.
Test [4] has as its target T1, Complement C1s subcomponent (Homo sapiens, UniProt P09871).
T1 sequence (P09871 whole entry): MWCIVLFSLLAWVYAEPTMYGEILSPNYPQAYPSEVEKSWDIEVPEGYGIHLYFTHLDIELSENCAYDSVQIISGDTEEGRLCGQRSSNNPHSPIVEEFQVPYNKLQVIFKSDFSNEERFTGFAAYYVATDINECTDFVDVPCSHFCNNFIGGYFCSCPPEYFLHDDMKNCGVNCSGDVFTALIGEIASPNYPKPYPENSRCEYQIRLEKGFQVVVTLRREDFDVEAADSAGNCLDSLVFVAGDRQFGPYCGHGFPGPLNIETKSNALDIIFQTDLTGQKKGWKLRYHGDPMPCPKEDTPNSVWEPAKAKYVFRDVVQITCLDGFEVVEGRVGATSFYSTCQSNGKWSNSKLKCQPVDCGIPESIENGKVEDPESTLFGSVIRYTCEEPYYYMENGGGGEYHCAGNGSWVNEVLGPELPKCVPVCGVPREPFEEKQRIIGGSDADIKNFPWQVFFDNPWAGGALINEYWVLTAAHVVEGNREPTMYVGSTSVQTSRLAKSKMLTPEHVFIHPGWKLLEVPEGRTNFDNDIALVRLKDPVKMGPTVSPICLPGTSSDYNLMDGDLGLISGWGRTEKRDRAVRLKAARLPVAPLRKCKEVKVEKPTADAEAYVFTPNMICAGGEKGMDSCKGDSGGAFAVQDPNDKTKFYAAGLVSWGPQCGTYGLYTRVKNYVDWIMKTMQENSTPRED
As to the kind of experiment: Inhibition of C1s (unknown origin) using Cbz-Gly-Arg-S-Bzl as substrate preincubated with substrate for 15 mins followed by enzyme addition and measured after 5 mins.

A short description of test [5]: Binding affinity to C1q (unknown origin) by SPR method. Also on record: species or system Homo sapiens.
Test [6] in a line: Inhibition of human plasma C1q-mediated rabbit RBC lysis after 60 mins.
Test [7] can be described thus: Inhibition of chimpanzee serum C1q-mediated rabbit RBC lysis after 60 mins. Also on record: species or system Pan troglodytes.
The nature of test [8]: Inhibition of rhesus monkey serum C1q-mediated rabbit RBC lysis after 60 mins. Also on record: species or system Macaca mulatta.
Test [9] can be described thus: Inhibition of rat serum C1q-mediated rabbit RBC lysis after 60 mins.
Test [10] can be described thus: Inhibition of mouse serum C1q-mediated rabbit RBC lysis after 60 mins.
Test [11] concerns the target T2, Complement C1r subcomponent (Homo sapiens, UniProt P00736).
T2 sequence (P00736 whole entry): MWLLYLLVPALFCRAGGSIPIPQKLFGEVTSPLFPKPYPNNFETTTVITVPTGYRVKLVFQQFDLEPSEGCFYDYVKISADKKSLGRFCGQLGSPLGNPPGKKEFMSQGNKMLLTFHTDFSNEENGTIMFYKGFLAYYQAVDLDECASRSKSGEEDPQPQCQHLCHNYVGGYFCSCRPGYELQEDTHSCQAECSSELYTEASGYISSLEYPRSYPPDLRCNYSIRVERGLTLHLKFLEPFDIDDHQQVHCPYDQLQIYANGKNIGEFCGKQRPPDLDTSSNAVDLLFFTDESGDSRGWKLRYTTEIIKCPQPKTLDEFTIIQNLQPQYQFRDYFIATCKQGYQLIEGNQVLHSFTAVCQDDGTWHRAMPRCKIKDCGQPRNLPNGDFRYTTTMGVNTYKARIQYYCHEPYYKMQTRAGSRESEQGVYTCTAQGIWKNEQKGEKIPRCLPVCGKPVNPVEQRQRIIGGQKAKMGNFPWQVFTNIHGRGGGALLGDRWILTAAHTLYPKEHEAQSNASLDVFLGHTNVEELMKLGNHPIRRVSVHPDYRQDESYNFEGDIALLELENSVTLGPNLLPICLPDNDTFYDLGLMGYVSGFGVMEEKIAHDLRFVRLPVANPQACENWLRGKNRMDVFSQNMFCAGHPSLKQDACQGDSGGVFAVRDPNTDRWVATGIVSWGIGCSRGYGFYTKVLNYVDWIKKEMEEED
The test can be described thus: Inhibition of human serum C1r using AAME as substrate after 30 mins.

Test [12] deals with T1, Complement C1s subcomponent. The test can be described thus: Inhibition of human serum C1s using AGLME as substrate after 30 mins.
Test [13] can be described thus: Inhibition of guinea pig C1q-mediated sheep RBC lysis. The arrangement: species or system Cavia porcellus.
The target in test [14] is T3, Mannan-binding lectin serine protease 1 (Homo sapiens, UniProt P48740).
T3 sequence (P48740 whole entry): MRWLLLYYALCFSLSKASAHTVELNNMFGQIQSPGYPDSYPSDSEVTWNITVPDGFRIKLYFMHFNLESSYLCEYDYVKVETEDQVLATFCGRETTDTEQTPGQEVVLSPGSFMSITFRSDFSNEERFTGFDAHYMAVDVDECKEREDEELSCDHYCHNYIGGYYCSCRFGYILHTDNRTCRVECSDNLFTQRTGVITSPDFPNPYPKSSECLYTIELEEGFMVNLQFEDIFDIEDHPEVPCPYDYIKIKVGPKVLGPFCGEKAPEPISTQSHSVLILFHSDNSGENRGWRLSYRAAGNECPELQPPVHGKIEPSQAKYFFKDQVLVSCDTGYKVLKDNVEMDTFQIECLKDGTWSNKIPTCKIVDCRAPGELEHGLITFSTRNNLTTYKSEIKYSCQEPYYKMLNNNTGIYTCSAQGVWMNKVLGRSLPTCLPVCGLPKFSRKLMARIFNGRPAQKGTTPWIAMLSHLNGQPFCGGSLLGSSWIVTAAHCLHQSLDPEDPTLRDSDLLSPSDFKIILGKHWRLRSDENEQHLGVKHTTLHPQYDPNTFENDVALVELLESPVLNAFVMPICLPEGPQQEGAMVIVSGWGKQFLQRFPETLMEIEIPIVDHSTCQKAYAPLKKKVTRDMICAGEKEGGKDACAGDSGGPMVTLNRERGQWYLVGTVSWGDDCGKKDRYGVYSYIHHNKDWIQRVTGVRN
As to the kind of experiment: Inhibition of recombinant […] fragment of MASP-1 (unknown origin).

In test [15] the target is T3, Mannan-binding lectin serine protease 1. The test can be described thus: Inhibition of MASP1 (unknown origin)-induced lectin pathway by ELISA.
Test [16] has the same target. The test can be described thus: Inhibition of MASP-1 (unknown origin) using Z-L-LysSBzl hydrochloride as substrate preincubated for 1 hr followed by substrate addition.
In test [17] the target is T4, Mannan-binding lectin serine protease 2 (Homo sapiens, UniProt O00187). The test can be described thus: Inhibition of MASP-2 (unknown origin) using Z-L-LysSBzl hydrochloride as substrate preincubated for 1 hr followed by substrate addition.
In test [18] the target is T4, Mannan-binding lectin serine protease 2. As to the kind of experiment: Inhibition of MASP-2-mediated C4 deposition in human serum after 1 hr by ELISA. On the technique in general: In an ELISA, binding on a coated surface is turned into a signal by an enzyme label.
Test [19] has as its target T3, Mannan-binding lectin serine protease 1. As to the kind of experiment: Inhibition of MASP-1-mediated C3 deposition in human serum after 30 mins by ELISA.
Test [20] deals with T2, Complement C1r subcomponent. As to the kind of experiment: Inhibition of human plasma C1r using Cbz-Gly-Arg-S-Bzl as substrate preincubated for 10 mins followed by substrate addition and measured after 30 mins by DTNB reagent-based two-beam microtiter plate photometer.
Test [21] addresses T1, Complement C1s subcomponent. As to the kind of experiment: Inhibition of human plasma C1s using Cbz-Gly-Arg-S-Bzl as substrate preincubated for 10 mins followed by substrate addition and measured after 30 mins by DTNB reagent-based two-beam microtiter plate photometer.

T4 sequence (O00187 16-444 limits assumed): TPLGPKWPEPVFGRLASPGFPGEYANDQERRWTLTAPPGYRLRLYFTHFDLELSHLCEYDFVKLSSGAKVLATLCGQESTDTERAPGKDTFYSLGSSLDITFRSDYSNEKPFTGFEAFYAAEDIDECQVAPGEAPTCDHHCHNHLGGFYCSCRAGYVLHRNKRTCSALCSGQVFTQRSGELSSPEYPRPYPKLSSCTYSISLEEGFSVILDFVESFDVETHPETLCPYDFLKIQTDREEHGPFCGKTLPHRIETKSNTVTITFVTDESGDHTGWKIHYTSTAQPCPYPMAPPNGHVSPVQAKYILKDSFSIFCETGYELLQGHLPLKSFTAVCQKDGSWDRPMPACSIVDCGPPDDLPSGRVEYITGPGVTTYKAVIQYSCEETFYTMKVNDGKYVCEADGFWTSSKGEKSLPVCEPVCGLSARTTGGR
T4 sequence (O00187 445-686 limits assumed): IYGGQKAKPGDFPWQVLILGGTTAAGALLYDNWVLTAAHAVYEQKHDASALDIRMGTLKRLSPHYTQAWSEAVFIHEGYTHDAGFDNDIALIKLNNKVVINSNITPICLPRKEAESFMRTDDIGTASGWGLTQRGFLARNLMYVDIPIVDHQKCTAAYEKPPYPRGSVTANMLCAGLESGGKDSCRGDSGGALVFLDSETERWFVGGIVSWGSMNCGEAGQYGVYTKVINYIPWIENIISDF

On to `N=C(N)c1cc2ccc(OC(=O)c3cccs3)cc2s1`, for which the IC50 (as a rule, the concentration at which inhibition is half-maximal) in test [1] stood at 326 nM; in [2], 330 nM. In addition, the Ratio IC50 in test [3] worked out at 7.
With `CSc1sc(C(=N)N)cc1-c1nc(-c2cccc(NS(=O)(=O)c3ccc(F)cc3F)c2)cs1`, in test [4], the Ki – broadly, the dissociation constant of the complex between target and ligand, obtained from inhibition or displacement – came out at 30 nM.
On to `CC[C@H](C)[C@H](N)C(=O)N[C@@H](C)C(=O)N[C@@H](CC(C)C)C(=O)N[C@H](C(=O)N[C@@H](CC(C)C)C(=O)N[C@@H](CCC(=O)O)C(=O)N1CCC[C@H]1C(=O)N[C@H](C(=O)N[C@@H](CS)C(=O)N[C@@H](CS)C(=O)N[C@@H](CCC(N)=O)C(=O)N[C@@H](CCC(=O)O)C(=O)N[C@@H](CCCNC(=N)N)C(=O)N[C@@H](C)C(=O)N[C@@H](C)C(=O)O)[C@@H](C)CC)[C@@H](C)CC`, for which the Kd (commonly the equilibrium constant for the complex coming apart) in [5] was found to be 33 nM.
`CC(C)C[C@@H]1NC(=O)[C@H](CC(=O)O)NC(=O)[C@H](Cc2c[nH]cn2)NC(=O)[C@H](CCCNC(=N)N)NC(=O)[C@@H]2CCCN2C(=O)CNC(=O)[C@H](Cc2ccccc2)NC(=O)[C@@H]2CCCN2C(=O)CNC(=O)[C@H](CCC(=O)O)NC(=O)[C@@H](N)CSSC[C@@H](C(=O)N[C@@H](Cc2c[nH]c3ccccc23)C(=O)O)NC(=O)[C@H](Cc2ccccc2)NC(=O)[C@H]([C@@H](C)O)NC1=O` (H-CEGPFGPRHDLTFCW-OH; disulfide 1-14): the IC50 in test [6] was 2000 nM; in [7], 2 to 6 µM; in test [8], 2 to 6 µM; in [9], 2 to 6 µM; in [10], 2 to 6 µM.
Turning to `N=C(N)c1ccc2cc(OC(=O)c3ccc(N=C(N)N)cc3)ccc2c1` [NAFAMOSTAT], the IC50 in test [11] was found to be 800 nM; in test [12], 29 nM.
As for `CC(=O)N[C@@H](C)C(=O)N[C@@H](CCC(=O)O)C(=O)N[C@@H](C)C(=O)N[C@@H](CCCCN)C(=O)N[C@@H](C)C(=O)N[C@@H](CCCCN)C(=O)N[C@@H](C)C(N)=O` (Ac-AEAKAKA-NH2), the IC50 in test [13] was 166 µM.
As for `CC(C)C[C@H](NC(=O)[C@H](CCCCN)NC(=O)[C@H](CCCNC(=N)N)NC(=O)[C@@H](NC(=O)[C@H](CS)NC(=O)[C@H](Cc1ccccc1)NC(=O)[C@H](C)NC(=O)[C@H](CO)NC(=O)[C@H](CCCCN)NC(=O)CNC(=O)[C@H](CC(=O)O)NC(=O)[C@H](CO)NC(=O)CNC(=O)[C@H](CS)NC(=O)[C@H](CCCNC(=N)N)NC(=O)[C@H](CS)NC(=O)[C@@H](NC(=O)[C@H](CC(N)=O)NC(=O)[C@H](CS)NC(=O)[C@H](CCCCN)NC(=O)[C@H](CC(=O)O)NC(=O)[C@H](CCCCN)NC(=O)[C@H](Cc1ccccc1)NC(=O)[C@@H](NC(=O)[C@@H](NC(=O)CNC(=O)[C@@H]1CCCN1C(=O)[C@H](CCC(=O)O)NC(=O)[C@H](CS)NC(=O)[C@@H](NC(=O)[C@@H](N)C(C)C)[C@@H](C)O)[C@@H](C)O)[C@@H](C)O)[C@@H](C)O)[C@@H](C)O)C(=O)N[C@@H](CS)C(=O)N[C@@H](Cc1ccc(O)cc1)C(=O)N[C@@H](CCC(N)=O)C(=O)O` (H-VTCEPGTTFKDKCNTCRCGSDGKSAFCTRKLCYQ-OH), the Ki in [14] was found to be 7 nM. The compound also showed an IC50 in test [15] of 42 nM.
`CC[C@H](C)[C@H](NC(=O)CN)C(=O)N[C@@H](CS)C(=O)N[C@@H](CO)C(=O)N[C@@H](CCCNC(=N)N)C(=O)N[C@@H](CO)C(=O)N[C@@H](CC(C)C)C(=O)N1CCC[C@H]1C(=O)N1CCC[C@H]1C(=O)N[C@H](C(=O)N[C@@H](CS)C(=O)N[C@H](C(=O)N1CCC[C@H]1C(=O)N[C@@H](CC(=O)O)C(=O)O)[C@@H](C)CC)[C@@H](C)CC` (H-GICSRSLPPICIPD-OH): the Ki amounted to 65 nM in test [16] and 1030 nM in test [17]. For the same compound, the IC50 in [18] is 230 nM; in test [19], 40 nM.
With `CC(C)[C@@H](NC(=O)Cc1c(Cl)cccc1Cl)C(=O)N1CC=CC1C(=O)NCc1ccc(C(=N)N)s1` (stereo partly specified), the values for the IC50 in test [20] and in [21] were 600 nM and 900 nM, respectively.
